Measured values taken from US7135467B2, “HIV integrase inhibitors” (priority 2003, dated 2006).

Target: T1, HIV-integrase (recombinant integrase) (Human immunodeficiency virus type 1 group M subtype B, UniProt P12497)
T1 construct: Recombinant integrase (0.26 ng) was incubated with the beads
Experiment: HIV-Integrase Inhibition Activity (SPA bead strand-transfer assay)
Format: biochemical
Conditions: recombinant integrase on biotin labeled substrate DNA/SPA beads, P33 labeled target DNA; read-out: Activity (IC50 against HIV-integrase)
Summary of the method: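 Recombinant integrase (0.26 ng) was bound for 90 min at 37° C to biotin-labelled substrate DNA (5 pmole) on streptavidin SPA beads. After washing, inhibitors and 0.1 fmol P33-labelled target DNA were added, and the reaction was stopped with 10 mM EDTA. Integration was measured as CPM.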

Row | SMILES | IC50 [nM]
1 | Cn1c(N2CCCCS2(=O)=O)nc(C(=O)NCc2cc(F)cc(F)c2)c(O)c1=O [Compound 47, N-[(3,5-difluorophenyl)methyl]-1,6-dihydro-5-hydroxy-1-methyl-6-oxo-2-(tetrahydro-1,1-dioxido-2H-1,2-thiazin-2-yl)-4-pyrimidinecarboxamide] | 100 to 1000
2 | Cn1c(N2CCCCS2(=O)=O)nc(C(=O)NCc2cccc(OC(F)(F)F)c2)c(O)c1=O [Compound 48, 1,6-dihydro-5-hydroxy-1-methyl-6-oxo-2-(tetrahydro-1,1-dioxido-2H-1,2-thiazin-2-yl)-N-[[3-(trifluoromethoxy)phenyl]methyl]-4-pyrimidinecarboxamide] | 100 to 1000
3 | Cn1c(N2CCCCS2(=O)=O)nc(C(=O)NCCc2c[nH]c3ccccc23)c(O)c1=O [Compound 49, 1,6-dihydro-5-hydroxy-N-[2-(1H-indol-3-yl)ethyl]-1-methyl-6-oxo-2-(tetrahydro-1,1-dioxido-2H-1,2-thiazin-2-yl)-4-pyrimidinecarboxamide] | ≥ 1000
4 | Cc1ncn(-c2nc(C(=O)NCc3ccc(F)cc3)c(O)c(=O)n2C)n1 [Compound 58, N-[(4-fluorophenyl)methyl]-1,6-dihydro-5-hydroxy-1-methyl-2-(3-methyl-1H-1,2,4-triazol-1-yl)-6-oxo-4-pyrimidinecarboxamide] | 100 to 1000
5 | Cc1ncnn1-c1nc(C(=O)NCc2ccc(Cl)c(Cl)c2)c(O)c(=O)n1C [Compound 62, N-[(3,4-dichlorophenyl)methyl]-1,6-dihydro-5-hydroxy-1-methyl-2-(5-methyl-1H-1,2,4-triazol-1-yl)-6-oxo-4-pyrimidinecarboxamide] | 3 to 100
6 | Cn1c(N)nc(C(=O)NCc2ccc(F)cc2)c(O)c1=O [Compound 63, 2-amino-5-hydroxy-1-methyl-6-oxo-1,6-dihydro-pyrimidine-4-carboxylic acid 4-fluorobenzylamine] | 3 to 100
7 | CNc1nc(C(=O)NCc2ccc(F)cc2)c(O)c(=O)n1C [Compound 64, 5-Hydroxy-1-methyl-2-methylamino-6-oxo-1,6-dihydro-pyrimidine-4-carboxylic acid 4-fluoro-benzylamine] | 3 to 100
8 | Cn1c(N2CCC(O)CC2)nc(C(=O)NCc2ccc(F)cc2)c(O)c1=O [Compound 65, N-[(4-fluorophenyl)methyl]-1,6-dihydro-5-hydroxy-2-(4-hydroxy-1-piperidinyl)-1-methyl-6-oxo-4-pyrimidinecarboxamide] | 3 to 100
9 | Cc1cc(CNC(=O)c2nc(N3CCC(O)CC3)n(C)c(=O)c2O)ccc1F [Compound 66, N-[(4-fluoro-3-methylphenyl)methyl]-1,6-dihydro-5-hydroxy-2-(4-hydroxy-1-piperidinyl)-1-methyl-6-oxo-4-pyrimidinecarboxamide] | 3 to 100
10 | Cn1c(N2CCN(CCO)CC2)nc(C(=O)NCc2ccc(F)cc2)c(O)c1=O [Compound 67, N-[(4-fluorophenyl)methyl]-1,6-dihydro-5-hydroxy-2-[4-(2-hydroxyethyl)-1-piperazinyl]-1-methyl-6-oxo-4-pyrimidinecarboxamide] | 3 to 100
11 | Cc1cc(CNC(=O)c2nc(N3CCN(CCO)CC3)n(C)c(=O)c2O)ccc1F [Compound 68, N-[(4-fluoro-3-methylphenyl)methyl]-1,6-dihydro-5-hydroxy-2-[4-(2-hydroxyethyl)-1-piperazinyl]-1-methyl-6-oxo-4-pyrimidinecarboxamide] | 3 to 100
12 | Cn1c(N2CCNCC2)nc(C(=O)NCc2ccc(F)cc2)c(O)c1=O [Compound 69, N-[(4-fluorophenyl)methyl]-1,6-dihydro-5-hydroxy-1-methyl-6-oxo-2-(1-piperazinyl)-4-pyrimidinecarboxamide] | 100 to 1000
13 | Cc1cc(CNC(=O)c2nc(N3CCNCC3)n(C)c(=O)c2O)ccc1F [Compound 70, N-[(4-fluoro-3-methylphenyl)methyl]-1,6-dihydro-5-hydroxy-1-methyl-6-oxo-2-(1-piperazinyl)-4-pyrimidinecarboxamide] | 3 to 100
14 | CC(=O)N1CCN(c2nc(C(=O)NCc3ccc(F)cc3)c(O)c(=O)n2C)CC1 [Compound 71, 2-(4-acetyl-1-piperazinyl)-N-[(4-fluorophenyl)methyl]-1,6-dihydro-5-hydroxy-1-methyl-6-oxo-4-pyrimidinecarboxamide] | 3 to 100
15 | CC(=O)N1CCN(c2nc(C(=O)NCc3ccc(F)c(C)c3)c(O)c(=O)n2C)CC1 [Compound 72, 2-(4-acetyl-1-piperazinyl)-N-[(4-fluoro-3-methylphenyl)methyl]-1,6-dihydro-5-hydroxy-1-methyl-6-oxo-4-pyrimidinecarboxamide] | 3 to 100
16 | CCCN1CCN(c2nc(C(=O)NCc3ccc(F)cc3)c(O)c(=O)n2C)CC1 [Compound 73, N-[(4-fluorophenyl)methyl]-1,6-dihydro-5-hydroxy-1-methyl-6-oxo-2-(4-propyl-1-piperazinyl)-4-pyrimidinecarboxamide] | 3 to 100
17 | CCCN1CCN(c2nc(C(=O)NCc3ccc(F)c(C)c3)c(O)c(=O)n2C)CC1 [Compound 74, N-[(4-fluoro-3-methylphenyl)methyl]-1,6-dihydro-5-hydroxy-1-methyl-6-oxo-2-(4-propyl-1-piperazinyl)-4-pyrimidinecarboxamide] | 3 to 100
18 | Cn1c(N2CCN(c3ccccn3)CC2)nc(C(=O)NCc2ccc(F)cc2)c(O)c1=O [Compound 75, N-[(4-fluorophenyl)methyl]-1,6-dihydro-5-hydroxy-1-methyl-6-oxo-2-[4-(2-pyridinyl)-1-piperazinyl]-4-pyrimidinecarboxamide] | 3 to 100
19 | Cc1cc(CNC(=O)c2nc(N3CCN(c4ccccn4)CC3)n(C)c(=O)c2O)ccc1F [Compound 76, N-[(4-fluoro-3-methylphenyl)methyl]-1,6-dihydro-5-hydroxy-1-methyl-6-oxo-2-[4-(2-pyridinyl)-1-piperazinyl]-4-pyrimidinecarboxamide] | 3 to 100
20 | Cn1c(N2CCN(c3ncccn3)CC2)nc(C(=O)NCc2ccc(F)cc2)c(O)c1=O [Compound 77, N-[(4-fluorophenyl)methyl]-1,6-dihydro-5-hydroxy-1-methyl-6-oxo-2-[4-(2-pyrimidinyl)-1-piperazinyl]-4-pyrimidinecarboxamide] | 3 to 100
21 | Cc1cc(CNC(=O)c2nc(N3CCN(c4ncccn4)CC3)n(C)c(=O)c2O)ccc1F [Compound 78, N-[(4-fluoro-3-methylphenyl)methyl]-1,6-dihydro-5-hydroxy-1-methyl-6-oxo-2-[4-(2-pyrimidinyl)-1-piperazinyl]-4-pyrimidinecarboxamide] | 3 to 100
22 | Cn1c(N2CCN(c3ccccc3)CC2)nc(C(=O)NCc2ccc(F)cc2)c(O)c1=O [Compound 79, N-[(4-fluorophenyl)methyl]-1,6-dihydro-5-hydroxy-1-methyl-6-oxo-2-(4-phenyl-1-piperazinyl)-4-pyrimidinecarboxamide] | 3 to 100
23 | Cc1cc(CNC(=O)c2nc(N3CCN(c4ccccc4)CC3)n(C)c(=O)c2O)ccc1F [Compound 80, N-[(4-fluoro-3-methylphenyl)methyl]-1,6-dihydro-5-hydroxy-1-methyl-6-oxo-2-(4-phenyl-1-piperazinyl)-4-pyrimidinecarboxamide] | 3 to 100
24 | Cn1c(N2CCN(C(=O)N3CCNC3=O)CC2)nc(C(=O)NCc2ccc(F)cc2)c(O)c1=O [Compound 85, N-[(4-fluorophenyl)methyl]-1,6-dihydro-5-hydroxy-1-methyl-6-oxo-2-[4-[(2-oxo-1-imidazolidinyl)carbonyl]-1-piperazinyl]-4-pyrimidinecarboxamide] | 3 to 100
